In publication PMC7601839, “Anti-Acne Effects of Cembrene Diterpenoids from the Cultured Soft Coral Sinularia flexibilis” (Marine Drugs, 2020):

Key:
[1] = Survival rate of RAW 264.7 cells by MTT assay; type: cell-based; details: mouse, LPS-induced RAW 264.7 cells, read-out: Cell Viability (%)
Experimental: (§1) Anti-inflammatory effects were analyzed in RAW 264.7 cells, which were cultured in DMEM with 10% FBS, 1% L-glutamine, and 1% penicillin-streptomycin, and maintained at 37 °C in a 5% CO2 atmosphere. RAW 264.7 cells (4.0 × 10^5 cells/mL) were seeded in 96-well plates and co-treated with LPS (500 ng/mL) and test samples. After 24 h, NO production was determined by Griess reagent, and the absorption was detected at 530 nm. The percentage inhibition of NO production was presented as the anti-inflammatory activity. PGE2 concentrations in cell culture media were determined with a PGE2 enzyme-linked immunosorbent assay (ELISA) kit (Enzo Life Sciences, Farmingdale, NY, USA). The survival rate of RAW 264.7 cells was detected using an MTT assay.

[2] = tested on: COX-2; test: Western blot of COX-2 in LPS-induced RAW 264.7 cells; type: cell-based; details: 6 h and 24 h
Experimental: (§2) Whole-cell lysates were prepared using radioimmunoprecipitation (RIPA) assay. Proteins in lysate samples (30 μg) were analyzed using 10% sodium dodecylsulfate-polyacrylamide gel electrophoresis (SDS-PAGE). Gels were transferred to nitrocellulose membranes and probed with primary iNOS (clone N-20), COX-2 (clone C-20), p-ERK (clone N-20), p-JNK (clone N-20), and glyceraldehyde-3-phosphate dehydrogenase (GAPDH; clone 6C5) antibodies (Santa Cruz Biotechnology, Santa Cruz, CA, USA). Membranes were visualized with a BCIP/NBT kit (Gibco BRL, Grand Island, NY, USA). Protein expression was quantified using the Azure Biosystem C300 Imaging System. GAPDH expression was used as an internal control to compare with protein expressions of iNOS, COX-2, p-ERK, and p-JNK [24].

[3] = tested on: Testosterone-induced HaCaT cells; test: Anti-proliferative activity in testosterone-treated HaCaT cells (MTT); type: cell-based, human; details: for testosterone-induced HaCaT cell proliferation: SC-2 1.25–5, SC-7 2.5–10, SC-9 0.08–0.32 μM, 48 h
Experimental: (§3) HaCaT cells (10^5 cells/mL) were seeded in 96-well plates and co-treated with testosterone (5 μg/mL) or DHT (5 μg/mL) and test samples with no cytotoxicity for 48 h. Cell proliferative activity was detected by an MTT assay.

[4] = tested on: p-JNK; test: Western blot of p-JNK in HKC-treated RAW 264.7 cells; type: cell-based; details: SC-2 2.5–20 μM, SC-7 5–40 μM, SC-9 2.5–20 μM
Experimental: as §2
(§4) C. acnes (4 × 10^8 cfu/mL) was heated at 80 °C for 30 min and killed. Heat-killed C. acnes (HKC) was freeze-dried as a powder and maintained at 4 °C until use. RAW 264.7 and HaCaT cells were cultured in DMEM with 10% FBS, 1% penicillin-streptomycin, and 1% L-glutamine at 37 °C in a 5% CO2 atmosphere. RAW 264.7 cells (4 × 10^5 cells/mL) and HaCaT cells (10^5 cells/mL) were seeded in six-well plates and co-treated with HKC (300 μg/mL) and test samples [24]. After 24 h, NO production was determined by adding the Griess reagent in the cell culture medium, and the absorption was measured in an ELISA reader at 530 nm. The sample culture medium was removed, and RAW 264.7 cells and HaCaT cells were washed with PBS.

[5] = tested on: Dihydrotestosterone-induced HaCaT cells; test: Anti-proliferative activity in dihydrotestosterone-treated HaCaT cells (MTT); type: cell-based, human; details: for keratinocyte over-proliferation by DHT: HaCaT keratinocytes
Experimental: as §3

[6] = tested on: p-JNK; test: Western blot of p-JNK in LPS-induced RAW 264.7 cells; type: cell-based; details: 30 min, SC-2 2.5–20 μM, SC-7 5–40 μM, SC-9 2.5–20 μM
Experimental: as §2

[7] = tested on: HKC-induced RAW 264.7 cells (NO production); test: NO production (Griess) in heat-killed C. acnes (HKC)-induced RAW 264.7 cells; type: cell-based; details: Mus musculus, RAW264.7, 24 h, read-out: IC50 Value of NO Inhibition
Experimental: as §4

[8] = tested on: LPS-induced RAW 264.7 cells (NO production); test: NO production (Griess) in LPS-induced RAW 264.7 cells; type: cell-based; details: for inhibition at 20 µM / IC50: Mus musculus, RAW264.7, 24 h; for IC50: read-out: IC50 Value of NO Inhibition
Experimental: as §1

[9] = tested on: iNOS; test: Western blot of iNOS in LPS-induced RAW 264.7 cells; type: cell-based; details: 24 h
Experimental: as §2

[10] = tested on: p-ERK; test: Western blot of p-ERK in LPS-induced RAW 264.7 cells; type: cell-based; details: 30 min, SC-2 2.5–20 μM, SC-7 5–40 μM, SC-9 2.5–20 μM
Experimental: as §2

[11] = tested on: HaCaT cells; test: Cytotoxicity analysis in HaCaT cells; type: cell-based, human; details: for growth inhibition of HaCaT cells: at high doses
[12] = tested on: LPS-induced RAW 264.7 cells (PGE2 production); test: PGE2 production (ELISA) in LPS-induced RAW 264.7 cells; type: cell-based; details: for inhibitory effect on prostaglandin E2 (PGE2) production: 24 h
Experimental: as §1

[13] = tested on: iNOS; test: Western blot of iNOS in HKC-treated RAW 264.7 cells; type: cell-based
Experimental: as §2, §4

[14] = tested on: p-ERK; test: Western blot of p-ERK in HKC-treated RAW 264.7 cells; type: cell-based; details: SC-2 2.5–20 μM, SC-7 5–40 μM, SC-9 2.5–20 μM
Experimental: as §2, §4

[15] = tested on: COX-2; test: Western blot of COX-2 in HKC-treated RAW 264.7 cells; type: cell-based
Experimental: as §2, §4

[16] = tested on: iNOS; design: method as in PMID 23774887; details: LPS-stimulated RAW264.7 macrophage cells; cited from earlier work
[17] = tested on: p-ERK; test: Western blot of p-ERK in HKC-treated HaCaT cells; type: cell-based, human; details: 30 min after HKC induction
Experimental: as §2, §4

[18] = tested on: COX-2; design: method as in PMID 23774887; details: LPS-stimulated RAW264.7 macrophage cells; cited from earlier work
[19] = tested on: HaCaT cells; test: cells; details: Homo sapiens, read-out: HaCaT cell viability
Experimental: (§5) HaCaT cells (10^5 cells/mL) were seeded in 96-well plates and co-treated with testosterone (5 μg/mL) or DHT (5 μg/mL) and test samples with no cytotoxicity for 48 h [2, 25, 26]. Cell proliferative activity was detected by an MTT assay.

[20] = tested on: HaCaT cells; details: 20 nM, 48 h
Experimental: as §5

[21] = Homo sapiens, testosterone-induced HaCaT cells
[22] = Homo sapiens, dihydrotestosterone-induced HaCaT cells

C=C1C(=O)OC2(C)CCC1CC1OC1(C)CCC(OC(C)=O)C1(C)CCC2O1 (stereo not drawn) [SC-7, 3,4:8,11-bisepoxy-7-acetoxycembra-15(17)-en-1,12-olide]
viability at 24 h, 20 µM [1]: 96.1 ± 8.4%
COX-2 protein expression [2]: did not present identical COX-2 inhibitory effects
inhibition at 2.5 µM [3, 21]: 13.2 ± 0.7%
inhibition at 5 µM [3, 21]: 14 ± 2%
inhibition at 10 µM ([3]; Homo sapiens, testosterone-induced HaCaT cells, 10 μM): 20.8 ± 0.9%
testosterone-induced HaCaT cell proliferation [3]: significantly decreased
p-JNK expression [4]: good inhibitory effects
keratinocyte over-proliferation by DHT [5]: inhibited keratinocyte over-proliferation
inhibition at 2.5 µM [5, 22]: 9.5 ± 3.2%
inhibition at 5 µM [5, 22]: 13.1 ± 2.9%
inhibition at 10 µM ([5]; Homo sapiens, dihydrotestosterone-induced HaCaT cells, 10 μM): 13.8 ± 0.8%
p-JNK protein expression [6]: dose-dependent inhibitory effects
IC50 [7]: 7.42 ± 0.4 µM
inhibition at 20 µM [8]: 50.2 ± 5.5%
IC50 [8]: 15.2 ± 0.25 µM
iNOS protein expression [9]: decreased iNOS protein expression
p-ERK protein expression [10]: dose-dependent inhibitory effects
concentrations with no cytotoxicity to HaCaT cells [11]: 5000 to 40000 nM
inhibitory effect on prostaglandin E2 (PGE2) production [12]: no inhibitory effect
iNOS expression [13]: significant inhibitory effects
p-ERK expression [14]: good inhibitory effects
COX-2 expression [15]: no changes
accumulation of the proinflammatory iNOS protein [16]: significantly inhibit
p-ERK protein expression [17]: significant inhibitory effects

flexibilisolides D
accumulation of the proinflammatory iNOS protein [16]: significantly inhibit

flexibilisolides C
accumulation of COX-2 protein [18]: could reduce
accumulation of the proinflammatory iNOS protein [16]: significantly inhibit

C=C1C(=O)O[C@@H]2C[C@H]1CC[C@]1(C)O[C@H]1CC/C(C)=C/CC[C@]2(C)O [SC-9, sinularin]
viability at 24 h, 20 µM [1]: 98.9%
COX-2 protein expression [2]: more significant COX-2 inhibitory effects at 6 h than that at 24 h
inhibition at 0.08 µM ([3]; Homo sapiens, testosterone-induced HaCaT cells, 0.08 μM): 6.5 ± 0.5%
inhibition at 0.16 µM ([3]; Homo sapiens, testosterone-induced HaCaT cells, 0.16 μM): 11.5 ± 1.3%
inhibition at 0.32 µM ([3]; Homo sapiens, testosterone-induced HaCaT cells, 0.32 μM): 19.1 ± 1.3%
testosterone-induced HaCaT cell proliferation [3]: significantly decreased
p-JNK expression [4]: good inhibitory effects
keratinocyte over-proliferation by DHT [5]: inhibited keratinocyte over-proliferation
inhibition at 0.08 µM ([5]; Homo sapiens, dihydrotestosterone-induced HaCaT cells, 0.08 μM): 8.5 ± 0.7%
inhibition at 0.16 µM ([5]; Homo sapiens, dihydrotestosterone-induced HaCaT cells, 0.16 μM): 16 ± 0.7%
inhibition at 0.32 µM ([5]; Homo sapiens, dihydrotestosterone-induced HaCaT cells, 0.32 μM): 18 ± 3.1%
p-JNK protein expression [6]: dose-dependent inhibitory effects
IC50 [7]: 2.81 ± 0.2 µM
inhibition at 20 µM [8]: 102 ± 1.4%
IC50 [8]: 3.85 ± 0.25 µM
iNOS protein expression [9]: decreased iNOS protein expression
p-ERK protein expression [10]: dose-dependent inhibitory effects
concentrations with no cytotoxicity to HaCaT cells [11]: 312 to 2500 nM
growth inhibition of HaCaT cells [11]: caused growth inhibition
inhibitory effect on prostaglandin E2 (PGE2) production [12]: no inhibitory effect
IC50 ([12]; Mus musculus, RAW264.7, 6 h, read-out: IC50 Value of PGE2 Inhibition): 6.22 µM
iNOS expression [13]: significant inhibitory effects
p-ERK expression [14]: good inhibitory effects
COX-2 expression [15]: no changes
p-ERK protein expression [17]: significant inhibitory effects

C=C1C(=O)O[C@]2(C)CC[C@@H]1C[C@@H]1O[C@@]1(C)C/C=C/[C@@](C)(OO)CCC2=O [flexilarin D]
accumulation of the proinflammatory iNOS protein [16]: significantly inhibit

C[C@]12CCC(=O)C[C@@H]1CC[C@@H]1[C@@H]2CC[C@]2(C)[C@@H](O)CC[C@@H]12 [DHT, dihydrotestosterone]
viability at 0.1 µg/mL [19]: 97.6%
viability at 0.5 µg/mL [19]: 103%
viability at 1 µg/mL [19]: 105%
viability at 5 µg/mL [19]: 118%
HaCaT cell proliferation [20]: significantly induced

C/C1=C\CC[C@](C)(O)[C@H]2C[C@@H](CC[C@]3(C)O[C@H]3CC1)[C@H](C)C(=O)O2 [SC-10, dihydrosinularin]
viability at 24 h, 20 µM [1]: 117 ± 1.9%
inhibitory effects on NO expression [8]: no inhibitory effects
inhibition at 20 µM [8]: 28.2 ± 4.6%

C=C1C(=O)OC2(C)CCC1CC1OC1(C)CCC=C(C)CCC2=O (stereo not drawn) [SC-2, 11-dehydrosinulariolide]
viability at 24 h, 20 µM [1]: 102 ± 9.4%
COX-2 protein expression [2]: did not present identical COX-2 inhibitory effects
inhibition at 1.25 µM ([3]; Homo sapiens, testosterone-induced HaCaT cells, 1.25 μM): 11.9 ± 5.5%
inhibition at 2.5 µM [3, 21]: 13.5 ± 1.1%
inhibition at 5 µM [3, 21]: 17.4 ± 2.8%
testosterone-induced HaCaT cell proliferation [3]: significantly decreased
p-JNK expression [4]: good inhibitory effects
keratinocyte over-proliferation by DHT [5]: inhibited keratinocyte over-proliferation
inhibition at 1.25 µM ([5]; Homo sapiens, dihydrotestosterone-induced HaCaT cells, 1.25 μM): 10.6 ± 3%
inhibition at 2.5 µM [5, 22]: 12.3 ± 3.1%
inhibition at 5 µM [5, 22]: 16.8 ± 4%
accumulation of COX-2 protein [18]: could reduce
p-JNK protein expression [6]: dose-dependent inhibitory effects
IC50 [7]: 5.81 ± 0.4 µM
inhibition at 20 µM [8]: 92.4 ± 3%
IC50 [8]: 5.66 ± 0.19 µM
iNOS protein expression [9]: decreased iNOS protein expression
p-ERK protein expression [10]: dose-dependent inhibitory effects
concentrations with no cytotoxicity to HaCaT cells [11]: 1250 to 10000 nM
growth inhibition of HaCaT cells [11]: caused growth inhibition
inhibitory effect on prostaglandin E2 (PGE2) production [12]: no inhibitory effect
iNOS expression [13]: significant inhibitory effects
p-ERK expression [14]: good inhibitory effects
COX-2 expression [15]: no changes
accumulation of the proinflammatory iNOS protein [16]: significantly inhibit
p-ERK protein expression [17]: significant inhibitory effects

C=C1C(=O)O[C@]2(C)CC[C@@H]1C[C@@H]1O[C@@]1(C)CC/C=C(\C)CC[C@H]2O [11-epi-sinulariolide]
accumulation of COX-2 protein [18]: could reduce
accumulation of the proinflammatory iNOS protein [16]: significantly inhibit

C=C(C(=O)O)[C@@H]1CC[C@@](C)(O)[C@@H]2CC[C@@](C)(O2)[C@@H](OC(C)=O)CC[C@]2(C)O[C@H]2C1 [SC-6, dendronpholide F]
viability at 24 h, 20 µM [1]: 96.1 ± 0.4%
inhibitory effects on NO expression [8]: no inhibitory effects
inhibition at 20 µM [8]: -15.1%

C[C@]12CC[C@H]3[C@@H](CCC4=CC(=O)CC[C@@]43C)[C@@H]1CC[C@@H]2O [testosterone]
HaCaT cell proliferation [20]: significantly induced
